US8143259B2, “Cold menthol receptor antagonists” (Janssen Pharmaceutica, NV, priority 2008, dated 2012)
Several values for one entry are separate records, joined by “and”; a condition that tells them apart may be missing. Equal entries are not always repeated.

Target: T1, canine TRPM8 (Canis lupus familiaris, UniProt Q1A7N1)
T1 construct: expressed in transfected cells
Assay: In Vitro Canine TRPM8 Functional Assay (Ca2+ fluorescence, icilin activation)
Type: cell-based
Conditions: for inhibition at 0.2 µM: HEK293, 0.2 μM compound; for IC50: HEK293 cells stably expressing canine TRPM8, icilin activation, Ca2+ fluorescence; for % Inh @ 0.2 μM: 0.2 μM compound; for % Inh @ 1 μM: 1 μM compound; for inhibition at 1 µM: HEK293, 1 μM compound
Description: The functional activity of compounds of the formula (I) was determined by measuring changes in intracellular calcium concentration using a Ca^2+-sensitive fluorescent dye. The changes in fluorescent signal were monitored by a fluorescence plate reader, either a FLIPR™ (Molecular Devices) or FDSS (Hamamatsu). Increases in intracellular Ca^2+ concentration were readily detected upon activation with icilin.
HEK293 cells stably expressing canine TRPM8 were routinely grown as monolayers in Dulbecco's minimum essential medium supplemented with 10% FBS, 2 mM L-glutamine, 100 units/mL penicillin, 100 ug/mL streptomycin and 400 μg/mL G418. Cells were maintained in 5% CO2 at 37° C. At 24 hrs prior to assay, cells were seeded in black wall, clear-base poly-D-lysine coated 384-well plates (BD Biosciences, NJ, USA) at a density of 5,000 cells per well in culture medium and grown overnight in 5% CO2 at 37° C. On assay day, growth media was removed and cells were loaded with Calcium 3 Dye (Molecular Devices) for 35 min at 37° C., under 5% CO2 and then for 25 min at room temperature and atmosphere. Subsequently, cells were tested for agonist-induced increases in intracellular Ca^2+ levels using FLIPR™ or FDSS. Cells were challenged with compounds of the formula (I) (at varying concentrations) and intracellular Ca^2+ was measured for 5 min prior to the addition of icilin to all wells to achieve a final concentration that produces approximately an 80% maximal response.
Maximal fluorescence intensity (FI) achieved upon addition of icilin was exported from the FLIPR or FDSS software and further analyzed using GraphPad Prism 3.02 (Graph Pad Software Inc., CA, U.S.A.). Basal FI was subtracted prior to normalizing data to percent of maximal response. Curves were generated using the average of quadruplicate wells for each data point, were analyzed using nonlinear regression of either sigmoidal dose response or sigmoidal dose response (variable slope).

[1] = canine TRPM8 HEK293, icilin, 0.2 µM

T1 sequence (Q1A7N1 1-1104): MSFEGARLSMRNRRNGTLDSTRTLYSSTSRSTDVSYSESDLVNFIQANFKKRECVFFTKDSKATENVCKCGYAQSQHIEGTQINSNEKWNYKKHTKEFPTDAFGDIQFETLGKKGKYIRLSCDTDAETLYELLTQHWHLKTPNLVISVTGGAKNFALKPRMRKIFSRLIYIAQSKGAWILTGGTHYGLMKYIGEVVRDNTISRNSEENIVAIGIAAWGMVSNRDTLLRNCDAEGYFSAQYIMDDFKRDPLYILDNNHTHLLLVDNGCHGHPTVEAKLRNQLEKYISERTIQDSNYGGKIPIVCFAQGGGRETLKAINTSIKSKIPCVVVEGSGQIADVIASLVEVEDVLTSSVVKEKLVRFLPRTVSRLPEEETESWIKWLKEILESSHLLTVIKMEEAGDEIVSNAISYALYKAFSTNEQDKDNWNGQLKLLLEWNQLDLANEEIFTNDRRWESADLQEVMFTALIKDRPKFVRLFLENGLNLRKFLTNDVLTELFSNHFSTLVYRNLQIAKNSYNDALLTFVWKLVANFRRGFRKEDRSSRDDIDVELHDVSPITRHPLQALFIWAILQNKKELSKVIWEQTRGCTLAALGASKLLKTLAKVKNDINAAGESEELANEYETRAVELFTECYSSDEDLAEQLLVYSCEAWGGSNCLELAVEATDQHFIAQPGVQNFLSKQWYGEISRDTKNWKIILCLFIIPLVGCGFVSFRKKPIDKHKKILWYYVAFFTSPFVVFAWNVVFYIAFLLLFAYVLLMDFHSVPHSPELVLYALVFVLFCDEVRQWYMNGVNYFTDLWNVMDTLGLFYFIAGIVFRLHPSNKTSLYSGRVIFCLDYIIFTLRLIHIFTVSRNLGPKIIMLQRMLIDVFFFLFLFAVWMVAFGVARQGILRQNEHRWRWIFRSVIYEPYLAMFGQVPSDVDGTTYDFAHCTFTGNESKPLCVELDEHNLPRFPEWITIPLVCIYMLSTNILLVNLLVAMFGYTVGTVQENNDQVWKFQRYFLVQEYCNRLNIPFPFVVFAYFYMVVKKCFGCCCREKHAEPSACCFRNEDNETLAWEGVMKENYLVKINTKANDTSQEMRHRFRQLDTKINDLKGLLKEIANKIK

| Structure (SMILES) | inhibition at 0.2 µM (canine TRPM8 HEK293, icilin) [%] | IC50 | % Inh @ 0.2 μM [1] | also measured |
| --- | --- | --- | --- | --- |
| O=C(C(Nc1ccccc1F)c1ccc(C(F)(F)F)cc1)N1CCCC1c1ccccc1Cl (single isomer, unassigned) [Cpd 189] | 98 | 9 nM | – | – |
| O=C(C(Nc1ccccc1F)c1ccc(C(F)(F)F)cc1)N1CCCC1c1ccccc1 (single isomer, unassigned) [Cpd 190] | 89 | 85 nM | – | – |
| O=C(C(Nc1ccccc1F)c1ccc(C(F)(F)F)cc1)N1CCCC1c1ccccc1 (single isomer, unassigned) [Cpd 191] | – | 5 nM | 100% | – |
| O=C(C(Nc1ccccc1F)c1ccc(C(F)(F)F)cc1)N1CCCC1c1ccccc1Cl (single isomer, unassigned) [Cpd 198] | – | 19 nM and 35 nM | 101% | – |
| COC(=O)[C@@H]1CC[C@H](c2ccccc2)N1C(=O)C(Nc1c(F)cccc1F)c1ccc(Br)cc1 (single isomer, unassigned) [Cpd 204] | 47 | – | – | – |
| COC(=O)[C@@H]1CC[C@H](c2ccccc2)N1C(=O)C(Nc1c(F)cccc1F)c1ccc(Br)cc1 (single isomer, unassigned) [Cpd 205] | – | – | 62% | – |
| COC(=O)C1CCC(c2ccccc2)N1C(=O)C(Nc1ccccc1)c1ccc(Cl)cc1 (single isomer, unassigned) [Cpd 206] | 92 | 76 nM | – | – |
| COC(=O)C1CCC(c2ccccc2)N1C(=O)C(Nc1ccccc1F)c1ccc(Br)cc1 (single isomer, unassigned) [Cpd 208] | 101 | 9 nM | – | – |
| COC(=O)C1CCC(c2ccccc2)N1C(=O)C(Nc1ccccc1F)c1ccc(Br)cc1 (single isomer, unassigned) [Cpd 209] | – | 99 nM | 94% | – |
| COC(=O)C1CCC(c2ccccc2)N1C(=O)C(Nc1ccccc1)c1ccc(Cl)cc1 (single isomer, unassigned) [Cpd 212] | – | 17 nM | 99% | – |
| O=C(C(Nc1ccccc1)c1ccc(Cl)cc1)N1[C@H](CO)CC[C@@H]1c1ccccc1 (single isomer, unassigned) [Cpd 235] | – | 53.7 nM | – | – |
| O=C(C(Nc1ccccc1F)c1ccc(Br)cc1)N1[C@@H](CO)CC[C@H]1c1ccccc1 (single isomer, unassigned) [Cpd 242] | – | 65.5 nM | – | – |
| O=C([C@H](Nc1c(F)cccc1F)c1ccc(Br)cc1)N1[C@H](CO)CC[C@@H]1c1ccccc1 (single isomer, unassigned) [Cpd 243] | 88 | 133 nM | – | – |
| O=C(C(Nc1ccccc1F)c1ccc2ncccc2c1)N1CCCC1c1ccccc1F (single isomer, unassigned) [Cpd 247] | 93 | 8.4 nM | – | – |
| O=C(C(Nc1ccccc1F)c1ccc2ncccc2c1)N1CCCC1c1ccccc1F (single isomer, unassigned) [Cpd 251] | – | 53.7 nM | 90% | – |
| O=C(C(c1ccc(C(F)(F)F)cc1)N1CCc2ccccc21)N1CCC[C@H]1c1cccnc1 (single isomer, unassigned) [Cpd 274] | 98 | 17 nM | – | – |
| COc1ccccc1C1CCCN1C(=O)C(Nc1ccccc1F)c1cnc2ccccc2c1 (single isomer, unassigned) [Cpd 277] | 101 | 8 nM | – | – |
| COc1ccccc1C1CCCN1C(=O)C(Nc1ccccc1F)c1cnc2ccccc2c1 (single isomer, unassigned) [Cpd 278] | – | 31 nM and 36 nM | 94% and 101% | – |
| O=C(C(Nc1ccccc1F)c1cnc2ccccc2c1)N1CCC[C@H]1c1ccccc1F (single isomer, unassigned) [Cpd 280] | 93 | 4 nM and 8 nM | 101% | – |
| O=C(C(Nc1ccccc1F)c1ccc(-c2ccccn2)cc1)N1CCCC1c1ccccc1F (single isomer, unassigned) [Cpd 296] | 88 | 4 nM and 9 nM | 96% | – |
| O=C(C(Nc1ccccc1F)c1ccc(-c2ccccn2)cc1)N1CCCC1c1ccccc1F (single isomer, unassigned) [Cpd 297] | – | 65 nM and 69 nM | 85% and 87% | – |
| O=C(C(Nc1ccccc1F)c1cnc2ccccc2c1)N1CCCC1c1cccnc1 (single isomer, unassigned) [Cpd 298] | – | – | – | % Inh @ 0.2 μM (canine TRPM8 HEK293, icilin): 22% |
| O=C(C(Nc1ccccc1F)c1ccc(-c2ccccc2)nc1)N1CCC[C@H]1c1ccccc1F (single isomer, unassigned) [Cpd 307] | 102 | 4 nM | – | – |

| Structure (SMILES) | inhibition at 0.2 µM (canine TRPM8 HEK293, icilin) [%] | IC50 | % Inh @ 0.2 μM [1] | also measured |
| --- | --- | --- | --- | --- |
| O=C(C(Nc1ccccc1F)c1ccc(-c2ccccc2)nc1)N1CCCC1c1ccccc1F (single isomer, unassigned) [Cpd 308] | – | – | – | % Inh @ 0.2 μM (canine TRPM8 HEK293, icilin): 11% |
| O=C(C(Nc1ccccc1F)c1ccc2ncccc2c1)N1CCCC1c1ccccc1Cl (single isomer, unassigned) [Cpd 315] | – | – | – | % Inh @ 0.2 μM (canine TRPM8 HEK293, icilin): 49% |
| O=C(C(Nc1ccccc1F)c1cc2ccccc2s1)N1CCCC1c1ccncc1 (single isomer, unassigned) [Cpd 322] | 89 | 8 nM | – | – |
| O=C(C(Nc1ccccc1F)c1cc2ccccc2s1)N1CCCC1c1ccncc1 (single isomer, unassigned) [Cpd 323] | – | 24 nM | 95% | – |
| O=C(C(Nc1ccccc1F)c1cc2ccccc2s1)N1CCCC1c1ccccn1 (single isomer, unassigned) [Cpd 330] | 101 | 6 nM | – | – |
| O=C(C(Nc1ccccc1F)c1cc2ccccc2s1)N1CCCC1c1ccccn1 (single isomer, unassigned) [Cpd 331] | – | 13 nM | – | % Inh @ 0.2 μM (canine TRPM8 HEK293, icilin): 101% |
| O=C(C(Nc1ccccc1F)c1cncc2ccccc12)N1CCCC1c1ccccc1F (single isomer, unassigned) [Cpd 332] | – | – | 47% | – |
| O=C(C(Nc1ccccc1F)c1cncc2ccccc12)N1CCCC1c1ccccc1F (single isomer, unassigned) [Cpd 333] | – | – | 62% | – |
| O=C(C(Nc1ccccc1F)c1ccc(-c2ccccn2)cc1)N1CCCC1c1ccccc1Cl (single isomer, unassigned) [Cpd 338] | 101 | 17 nM | – | – |
| O=C(C(Nc1ccccc1F)c1ccc(-c2ccccn2)cc1)N1CCCC1c1ccccc1Cl (single isomer, unassigned) [Cpd 339] | – | 27 nM | 97% | – |
| Cc1nc2ccc(C(Nc3ccccc3F)C(=O)N3CCCC3c3ccccc3F)cc2s1 (single isomer, unassigned) [Cpd 340] | 101 | 5 nM | – | – |
| Cc1nc2ccc(C(Nc3ccccc3F)C(=O)N3CCCC3c3ccccc3F)cc2s1 (single isomer, unassigned) [Cpd 341] | – | 24 nM | 100% | – |
| O=C(C(Nc1ccccc1F)c1ccc(C(F)(F)F)cc1)N1CCCC1c1cncc(Br)c1 (single isomer, unassigned) [Cpd 345] | 92 | 44 nM | – | – |
| O=C(C(Nc1ccccc1F)c1ccc(C(F)(F)F)cc1)N1CCCC1c1cncc(Br)c1 (single isomer, unassigned) [Cpd 346] | – | 38 nM | 97% | – |
| CC(C)(C)c1ccc(C(Nc2ccccc2F)C(=O)N2CCCC2c2ccccc2F)cn1 (single isomer, unassigned) [Cpd 356] | – | – | – | % Inh @ 0.2 μM (canine TRPM8 HEK293, icilin): 57% |
| CC(C)(C)c1ccc(C(Nc2ccccc2F)C(=O)N2CCC[C@H]2c2ccccc2F)cn1 (single isomer, unassigned) [Cpd 357] | 100 | 3 nM | – | – |
| O=C(C(Nc1ccccc1F)c1ccc(N2CCOCC2)nc1)N1CCCC1c1ccccc1F (single isomer, unassigned) [Cpd 360] | – | – | 43% | – |
| CC(C)(C)c1ccc(C(Nc2ccccc2)C(=O)N2CCCC2c2ccc(Cl)cc2)cc1 (single isomer, unassigned) [Cpd 367] | – | 149 ± 51 nM | – | % Inh @ 1 μM (canine TRPM8 HEK293, icilin, 1 µM): 5.8157% |
| CC(C)(C)c1ccc(C(Nc2ccccc2)C(=O)N2CCCC2CNc2ccccc2)cc1 (single isomer, unassigned) [Cpd 368] | – | – | – | % Inh @ 1 μM (canine TRPM8 HEK293, icilin): 15.864% |
| O=C(C(Nc1ccccc1)c1ccc(C(F)(F)F)cc1)N1CCCC1c1ccccc1Cl (single isomer, unassigned) [Cpd 369] | – | – | – | % Inh @ 0.5 μM (0.5 μM compound, canine TRPM8 HEK293, icilin): 7.773%; % Inh @ 3 μM (3 μM compound, canine TRPM8 HEK293, icilin): 48% |
| CC(C)(C)c1ccc(C(Nc2ccccc2)C(=O)N2CCC(O)(c3ccccc3)CC2)cc1 (stereo not shown) [Cpd 3] | – | 351 nM | – | inhibition at 1 µM (canine TRPM8 HEK293, icilin): 101% |
| CC(C)(C)c1ccc(C(Nc2ccccc2)C(=O)N2CCC(O)(c3ccccn3)CC2)cc1 (stereo not shown) [Cpd 4] | – | 291 nM | – | inhibition at 1 µM (canine TRPM8 HEK293, icilin): 102% |
| CC(C)(C)c1ccc(C(Nc2ccccc2)C(=O)N2CCCC2c2cccnc2)cc1 (stereo not shown) [Cpd 5] | – | 99.5 nM | – | inhibition at 1 µM (canine TRPM8 HEK293, icilin): 102% |
